Columns and labels:
mature murine adipocytes = experiment: Mature murine adipocytes ceiling culture, cytokine mRNA by RT-PCR; assay type: cell-based, mouse; details: three days in GFS vs GF media
Method: Anterior and posterior subcutaneous adipose tissue and epididymal white adipose tissue was isolated from transgenic CARKL-mice and wild-type littermate controls. Adipose tissue was digested as described above for the human sample. After centrifugation, the layer of floating mature adipocytes was removed and re-centrifuged at 100 rcf for 10 minutes. 150 μL, of packed adipocytes were cultured under a floating coverslip in six-well plates, in DMEM/F12, 15% calf serum (PAA). 24 hours after isolation, the wells were washed twice with PBS and the medium was exchanged to DMEM/F12 with a total carbohydrate load of 3 g/L, containing 1.5 g/L glucose and fructose, or 1 g/L each of glucose, fructose and sedoheptulose, respectively. Three days later, the cells were harvested for RNA isolation using TRIreagent (Sigma).
Briefly, total RNA was extracted and reverse-transcribed using commercial kits (QIAGEN, Applied Biosystems). Quantitative real-time PCRs were performed on an AbiPRISM 7900HT real-time cycler using iTaq SYBR Green Supermix with ROX (BioRad) to measure CARKL, adiponectin, UCP-1, TNFa, IL-6, MCP-1, and beta-actin expression as previously described (Haschemi et al., Cell Metab. 15 (2012), 813-826). Expression of target gene was normalized to beta-actin expression. Relative expression of target gene was calculated by the delta-delta CT method.

[1] = target: T1, recombinant sedoheptulose kinase (CARKL) (Homo sapiens, UniProt Q9UHJ6); experiment: Sedoheptulose kinase assay (ADP Quest, ADP formation); assay type: biochemical; details: constant amount of recombinant CARKL, constant ATP (150 μM), increased doses of sedoheptulose, FIG. 4A
T1 construct: made in house; host or cells: E. coli
T1 sequence (Q9UHJ6 1-478): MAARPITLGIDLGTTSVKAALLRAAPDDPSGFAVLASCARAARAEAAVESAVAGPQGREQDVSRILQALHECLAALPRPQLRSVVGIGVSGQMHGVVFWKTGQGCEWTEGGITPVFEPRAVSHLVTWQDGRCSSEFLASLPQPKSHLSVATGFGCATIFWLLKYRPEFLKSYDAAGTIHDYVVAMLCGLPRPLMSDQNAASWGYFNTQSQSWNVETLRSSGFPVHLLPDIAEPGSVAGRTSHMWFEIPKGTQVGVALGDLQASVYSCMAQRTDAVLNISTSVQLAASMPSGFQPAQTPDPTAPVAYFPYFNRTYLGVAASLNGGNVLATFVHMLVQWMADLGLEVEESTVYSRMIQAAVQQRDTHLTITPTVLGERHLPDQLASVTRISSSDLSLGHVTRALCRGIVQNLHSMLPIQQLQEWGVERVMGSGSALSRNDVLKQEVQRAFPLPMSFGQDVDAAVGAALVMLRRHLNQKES
Method: FIG. 4: In an in vitro kinase assay, which employs ADP formation as activity readout, the sedoheptulose turnover rate at constant ATP (150 μM) concentration was enhanced either by (A) increasing sedoheptulose concentration or (B) by increasing the amount of the rate-limiting enzyme sedoheptulose kinase (CARKL). (C-E) Hepatocytes from wilt-type (WT) and sedoheptulose kinase CARKL overexpressing mice were pre-cultured for two days in GFS containing media before basal (C) ECAR and (D) OCR was recorded of these cells. (E) Hepatocytes from both genetic lineages (CARKL and WT controls) were cultivated in GF or GFS containing media and then pre-starved (no-carbohydrates) for 1 h to measure glucose-induced ECAR after the addition of glucose to reach a final concentration of 1 g/L in the culture media mean+/−S.D., n=7-11). As metabolic in vivo indicators (F) the respiratory quotient (RQ) and (G) energy expenditure (EE, kcal/day/kg^0.75) per activity by indirect calorimetry were determined and compared CARKL to wild-type (WT) littermates during day (8 am to 4 pm) and night (8 pm to 4 am). Data represent mean values, n=3, +/−SD. […] Blood glucose was measured before the injection (control) and 15, 30, 45 and 60 minutes after injection and graphed as relative value in % of control. […]

primary human adipocytes = experiment: Extracellular acidification and oxygen consumption rates (XF-Analyzer) in human adipocytes; assay type: cell-based; details: adipocytes differentiated and cultured in sedoheptulose containing media vs controls
Method: Stromal vascular fraction cells (SVFs) from subcutaneous white adipose tissue of a patient undergoing abdominal surgery were isolated as described before (Lindroos et al, Cell Metab. (2013), July 2; 18(1):62-74.). Briefly, adipose tissue was digested with Collagenase II (Worthington) and filtered. SVFs were separated from mature adipocytes by centrifugation, followed by the lysis of erythrocytes in the SVF-fraction (Buffer EL, Qiagen). The purified SVFs were cultured in DMEM/F12, 10% FBS (Gibco, Life Technologies). As soon as the cells reached confluence, they were washed with DMEM/F12 w/o glucose (Biowest) and the medium was replaced by DMEM/F12 with a total carbohydrate load of 3 g/L, containing 1.5 g/L glucose and fructose or 1 g/L each of glucose, fructose, and sedoheptulose, respectively. […]
The XF-Analyzer (Seahorse Bio.) was used to measure changes in cellular metabolism induced by different carbohydrates. Extracellular acidification rates (ECAR, mpH/min) and oxygen consumption rates (OCR, pmoles/min) were recorded in primary human adipocytes and primary murine hepatocytes according to the manufacture instructions. […] Changes induced by the different carbohydrate sources were expressed as relative change in % to illustrate the effect of each carbon source.

**Q.** How did the “TNFa mRNA” value (mature murine adipocytes; FIG. 3F) turn out when `O=C(CO)[C@@H](O)[C@H](O)[C@H](O)[C@H](O)CO` [sedoheptulose, Sedoheptulose] was run?
**A.** Its value is “less”.

**Q.** And the “IL-6 mRNA” value (mature murine adipocytes; FIG. 3G)?
**A.** The value was “less”.

**Q.** And the “sedoheptulose turnover rates as measured by ADP formation” value [1]?
**A.** Its value is “enhanced”.

**Q.** And the “cellular oxygen consumption rates (OCR)” value (primary human adipocytes; FIG. 3D)?
**A.** Its value is “increased”.

**Q.** And the “extracellular acidification rates (ECAR)” value (primary human adipocytes; FIG. 3E)?
**A.** Its value is “comparable”.
